Results as given in patent publication US20130302442A1, “METHODS OF USING (4S,4AS,5AR,12AS)-4-DIMETHYLAMINO-3,10,12,12A-TETRAHYDROXY-7-[(METHOXY(METHYL)AMINO)-METHYL]-1,11-DIOXO-1,4,4A,5,5A,6,11,12A-OCTAHYDRO-NAPHTHACENE-2-CARBOXYLIC ACID AMIDE” (priority 2012, published 2013).
Converted amounts (≈) assume the structure as drawn. Where two headings read alike, the source gives them in different places. Blank lines part the entries; values can stand above or below the molecule they belong to.

Legend:
Helicobacter pylori [1] = assay: In vitro MIC against multiple isolates of H. pylori; type: cell-based; settings: for MIC Range: H. pylori clinical isolate summary; for MIC90: MIC for 90% of clinical test isolates
Helicobacter pylori [2] = settings: H. pylori reference strain 3718, ATCC 43504; Clinical and Laboratory Standards Institute quality control range; cited from earlier work

- MIC Range (Helicobacter pylori [1]): 0.015 to 0.12 µg/mL
- MIC (Helicobacter pylori [1]; H. pylori clinical isolate, culture No. 4368): 0.06 µg/mL (≈ 0.164 µM)
- MIC (Helicobacter pylori [1]; H. pylori clinical isolate, culture No. 4369): 0.12 µg/mL (≈ 0.328 µM)
- MIC (Helicobacter pylori [1]; H. pylori clinical isolate, culture No. 4370): 0.12 µg/mL (≈ 0.328 µM)
- MIC (Helicobacter pylori [1]; H. pylori clinical isolate, culture No. 4371): 0.12 µg/mL (≈ 0.328 µM)
- MIC (Helicobacter pylori [1]; H. pylori clinical isolate, culture No. 4372): 0.015 µg/mL (≈ 0.041 µM)
- MIC (Helicobacter pylori [1]; H. pylori clinical isolate, culture No. 4374): 0.015 µg/mL (≈ 0.041 µM)
- MIC (Helicobacter pylori [1]; H. pylori clinical isolate, culture No. 4375): 0.12 µg/mL (≈ 0.328 µM)
- MIC (Helicobacter pylori [1]; H. pylori clinical isolate, culture No. 4377): 0.015 µg/mL (≈ 0.041 µM)
- MIC (Helicobacter pylori [1]; H. pylori clinical isolate, culture No. 4503): 0.03 µg/mL (≈ 0.0821 µM)
- MIC (Helicobacter pylori [1]; H. pylori clinical isolate, culture No. 4504): 0.015 µg/mL (≈ 0.041 µM)
- MIC (Helicobacter pylori [1]; H. pylori reference strain, culture No. 3718, ATCC 43504): 0.03 µg/mL (≈ 0.0821 µM)
- MIC (Helicobacter pylori [1]; H. pylori reference strain, culture No. 3719, ATCC 700824): 0.015 µg/mL (≈ 0.041 µM)
- MIC (Helicobacter pylori [1]; H. pylori reference strain, culture No. 3720, ATCC BAA-945): 0.06 µg/mL (≈ 0.164 µM)
- MIC50 (Helicobacter pylori [1]; H. pylori, MIC for 50% of clinical test isolates): 0.03 µg/mL (≈ 0.0821 µM)
- MIC90 (Helicobacter pylori [1]; H. pylori): 0.12 µg/mL (≈ 0.328 µM)
Compound: CC1(C)S[C@@H]2[C@H](NC(=O)[C@H](N)c3ccc(O)cc3)C(=O)N2[C@H]1C(=O)O [AMX, amoxicillin]
- MIC, CLSI Quality Control Range (Helicobacter pylori [2]): (0.015-0.12) μg/mL

- MIC Range (Helicobacter pylori [1]): ≦0.03-64 μg/mL
- MIC (Helicobacter pylori [1]; Helicobacter pylori, ATCC43504, H. pylori reference strain, culture No. 3718, ATCC 43504, read-out: MIC): 64 µg/mL (≈ 374 µM)
- MIC (Helicobacter pylori [1]; Helicobacter pylori, ATCC700824, H. pylori reference strain, culture No. 3719, ATCC 700824, read-out: MIC): 1 µg/mL (≈ 5.84 µM)
- MIC (Helicobacter pylori [1]; Helicobacter pylori, ATCCBAA945, H. pylori reference strain, culture No. 3720, ATCC BAA-945, read-out: MIC): 1 µg/mL (≈ 5.84 µM)
- MIC (Helicobacter pylori [1]; Helicobacter pylori, H. pylori clinical isolate, culture No. 4368, read-out: MIC): 0.25 µg/mL (≈ 1.46 µM)
- MIC (Helicobacter pylori [1]; Helicobacter pylori, H. pylori clinical isolate, culture No. 4369, read-out: MIC): 0.5 µg/mL (≈ 2.92 µM)
- MIC (Helicobacter pylori [1]; Helicobacter pylori, H. pylori clinical isolate, culture No. 4370, read-out: MIC): 0.12 µg/mL (≈ 0.701 µM)
- MIC (Helicobacter pylori [1]; Helicobacter pylori, H. pylori clinical isolate, culture No. 4371, read-out: MIC): 1 µg/mL (≈ 5.84 µM)
- MIC (Helicobacter pylori [1]; Helicobacter pylori, H. pylori clinical isolate, culture No. 4372, read-out: MIC): 0.25 µg/mL (≈ 1.46 µM)
- MIC (Helicobacter pylori [1]; Helicobacter pylori, H. pylori clinical isolate, culture No. 4374, read-out: MIC): 0.12 µg/mL (≈ 0.701 µM)
- MIC (Helicobacter pylori [1]; Helicobacter pylori, H. pylori clinical isolate, culture No. 4375, read-out: MIC): 0.12 µg/mL (≈ 0.701 µM)
- MIC (Helicobacter pylori [1]; Helicobacter pylori, H. pylori clinical isolate, culture No. 4377, read-out: MIC): 1 µg/mL (≈ 5.84 µM)
- MIC (Helicobacter pylori [1]; Helicobacter pylori, H. pylori clinical isolate, culture No. 4503, read-out: MIC): ≤ 0.03 µg/mL
- MIC (Helicobacter pylori [1]; Helicobacter pylori, H. pylori clinical isolate, culture No. 4504, read-out: MIC): ≤ 0.03 µg/mL
- MIC90 (Helicobacter pylori [1]; Helicobacter pylori, H. pylori, read-out: MIC90): 1 µg/mL (≈ 5.84 µM)
- MIC50 (Helicobacter pylori [1]; Helicobacter pylori, read-out: MIC50): 0.12 µg/mL (≈ 0.701 µM)
Compound: Cc1ncc([N+](=O)[O-])n1CCO [Metronidazole, metronidazole]
- MIC, CLSI Quality Control Range (Helicobacter pylori [2]): 64 to 256 µg/mL
